Series [1] is described as follows: In vitro heating of solutions under NIR laser irradiation (FLIR thermal camera). It counts as physicochemical. The note with it: NIR laser 2 W/cm^2; for maximum temperature in solution / temperature reached in solution: five minutes irradiation; for temperature reached in solution: 228 nmol; for maximum temperature of solution: irradiated for ten minutes. On the procedure: The ability of ICG to generate high temperatures when irradiated with NIR light was measured in vitro. Different concentrations (228, 46, 23 and 12 nmol) of unconjugated ICG and ICG-Glu-Glu-AE105 in solution (0.2 g/ml (2-hydroxypropyl)-β-cyclodextrin in water and DMSO) were placed in a plastic cuvette under the laser beam. The laser was turned on for five minutes at 2 W/cm2 and the temperature measured with a thermal camera (FLIR T-440 camera), taking images every 30 seconds. The images were analyzed using the FLIR tools software.
In order to test the ability of ICG-Glu-Glu-AE105 to heat under NIR light, different concentrations of the compound in solution were placed in a plastic cuvette under a laser, at an intensity of 2 W/cm^2. The samples were then irradiated for ten minutes and the temperatures detected with a FLIR camera. For the highest concentration tested, 0.5 mg/ml, temperature increased fast in the first minutes and slower and in a more steady way after that, reaching a maximum temperature of 70.8±3° C. after ten minutes of irradiation. In contrast, lower concentrations reached their maximum peak fast; at five minutes for 0.1 mg/ml (62.7±1.6° C.), and around two to three minutes for 0.05 and 0.025 mg/ml (51.4±0.9 and 40.7±0.4° C. respectively). From that point, temperatures started to decrease most likely due to the irreversible degradation of ICG, which impedes heat generation (Wang et al., 2013).
Different concentrations of ICG in solution were irradiated as it was done for the conjugated dye. […] As expected, the maximum temperature was very similar to the one reached by 0.5 mg/ml of ICG-Glu-Glu-AE105, because a concentration of 0.5 mg/ml of ICG-Glu-Glu-AE105 corresponds to approximately 0.18 mg/ml of ICG alone. […] 0.05 mg/ml of ICG reached a maximum of 68.8±0.7° C. after seven minutes of irradiation, meanwhile 0.025 mg/ml of ICG peaked at three minutes at 50±0.2° C.
5 minutes irradiation trials were also made with reference to testing the ability of ICG-Glu-Glu-AE105 to heat under NIR light. See the set up with the compound in solution placed in a plastic cuvette under a laser beam (intensity 2 W/cm^2) in FIG. 1a. In this case the samples were irradiated for five minutes and the maximum temperatures were recorded with a FLIR camera. (FIG. 1b).
However, it was observed that the heat was mainly localized at the top of the sample and not evenly distributed throughout the solution. […] An important detail observed was the temperature decrease after reaching a certain peak, most likely due to the irreversible degradation of ICG, which impedes heat generation (Wang, Y.-G., Kim, H., Mun, S., Kim, D. & Choi, Y).

For series [2], the system named is subcutaneous U-87 MG.luc2 tumors. Kind of series: In vivo photothermal therapy (PTT) in subcutaneous mouse model of human glioblastoma. Further details: species or system mice. The following applies: for median survival: endpoint tumor 1000 mm^3; for highest temperature reached on tumor surface during PTT: 46 nmol injected four hours before PTT, 5 minutes NIR light at 2 W/cm^2. On the procedure: The animal experiments were approved by the Danish Animal Welfare Council, Ministry of Justice. For the in vivo studies, U-87 MG.luc2 cells were cultured in Dulbecco's modified eagle medium supplemented with 10% fetal bovine serum and 1% penicillin-streptomycin (Thermo Fisher Scientific) at 37° C. and in 5% CO2. When cells reached 70% confluence, they were harvested and 2-3×10^6 cells in 100 μl of PBS were inoculated into the left flank of NMRI nude female mice (Janvier Labs, France). Animals were left to grow tumors until they reached 300 mm^3 (day −1). From then on, tumors were measured every other day with the use of a caliper, and tumor volume calculated through the formula: (length×width^2)*0.5. When tumors reached 1,000 mm^3, animals were euthanized.
When tumors reached 300 mm^3, mice were divided into 5 groups: ICG-Glu-Glu-AE105 group (mice injected with 46 nmol ICG-Glu-Glu-AE105 four hours before PTT, n=6); ICG group (mice injected with 46 nmol of unconjugated ICG four hours before PTT, n=4); Saline group (mice injected with saline four hours before PTT, n=4); sham group (mice injected with ICG-Glu-Glu-AE105 and no PTT, n=5) and a control group (no injection, no PTT, n=4). Animals were given analgesia (buprenorphin, 0.3 mg/ml) right before the laser treatment and every 6 to 8 hours until deemed necessary. For PTT, animals were anesthetized with sevoflurane as previously described and placed under the laser beam for five minutes at 2 W/cm^2. The tumors were swabbed with glycerol, an index-matching agent, prior to the laser treatment to facilitate light penetration (Deng et al. 2011, Vargas et al., 1999, Simon et al., 2019). The temperatures reached on the tumor surface were detected with a thermal camera, as described for the in vitro experiments.
Animals were bioluminescence-scanned a day before PTT, on PTT day and afterwards every other day until endpoints were reached, using IVIS Lumina XR and acquisition software Living Image (Caliper life Sciences, Hopkinton, Calif., USA). For these bioluminescence scans, luciferin was injected intraperitoneally ([…]) ten minutes before the scan. Animals were then anesthetized as described in the previous sections and placed in the prone position. The excitation filter was set to 710 nm and the emission filter was set on ICG.
The fluorescence scans were performed to detect ICG signal before and after PTT using the Fluobeam®800 NIR-camera as described for the accumulation study.
The Kaplan-Meier method was used to create the survival curves, and they were compared through the log-rank test. The maximum temperatures on tumor surface were compared using one-way ANOVA with Tukey's multiple comparisons test. The fluorescence emitted by ICG measured by the Fluobeam before and after PTT was compared using two-way ANOVA with Sidak's multiple comparisons test. The data was plotted in Prism7 and shown as mean±SEM.
After determining ideal dose and treatment schedule, different groups of mice were set up in order to test the ability of ICG-Glu-Glu-AE105 as a photothermal agent, capable of specifically ablating tumors in vivo. For this, mice were injected subcutaneously with U-87 MG.luc2 cells, a type of glioblastoma cells expressing luciferase, which allows for bioluminescence imaging when luciferin is injected. The bioluminescence signal, detected when the reactive luciferin was injected and oxidized by the enzyme luciferase, serves as a way to determine treatment success and follow tumor growth. […] The timeline for the experiments can be seen on FIG. 3. On baseline (day −1), mice underwent a pre-treatment bioluminescence scan. Following, on treatment day (day 0), mice were injected with either ICG-Glu-Glu-AE105, ICG alone, saline or not injected as it was the case for the control group. Approximately four hours after injection, all groups but sham and control were irradiated for 5 minutes with NIR light at 2 W/cm2, and the temperatures on tumor surface were measured with a FLIR camera. […]

For series [3], the system named is U-87 MG.luc2 tumor tissue. The experiment in a line: Tumor response ex vivo: H&E staining and uPAR immunohistochemistry of tumors resected 2 days after PTT. It counts as in vivo, mice. The following applies: n=2 per group. As for the experimental part:
Tumors were resected from n=2 mice per group two days after PTT. Tumors were fixated in formaldehyde overnight, and afterwards conserved in ethanol for their later embedding in paraffin. To perform the histology experiments, tumors were resected in 4 μm slices in a microtome (Thermo Scientific Microm HM355S). The tissue slides were left to dry for at least 1.5 hours, and then heated first at 40 and after at 60° C. Following, slides were submerged in HistoClear to achieve deparaffinization and rehydrated through a series of EtOH to water. For hematoxylin and eosin staining, the tissue slides were stained with hematoxylin for 5 minutes, rinsed and stained with eosin for 3 minutes.
For immunohistochemistry, the rehydrated tissue slides underwent heat-induced epitope retrieval (HIER) by covering the tissue slides with 250 mL citrate buffer (pH=6), and steaming them at 100° C. for 15 minutes. […]
Finally, tumors from mice receiving the different treatments (n=2) were resected at day 2 (after PTT) and H&E stained to confirm changes in tumor morphology due to treatment ex vivo (FIG. 7). […] Finally, macrophages were detected through CD68 staining to observe co-localization with uPAR signal, which could be noted, again, for all viable tumor regions.

Where [4] appears, read: 46 nmol four hours before PTT (5 minutes, 2 W/cm^2).

Molecules are shown by their SMILES. “Also recorded” adds a separate entry of the source.

On to `CC1(C)C(/C=C/C=C/C=C/C=C2\N(CCCCS(=O)(=O)O)c3ccc4ccccc4c3C2(C)C)=[N+](CCCCS(=O)(=O)[O-])c2ccc3ccccc3c21` [ICG, indocyanine green], for which the “maximum temperature in solution” value in series [1] (12 nmol) is “around 38 °C”; in series [1] (23 nmol) it was “below 50 °C”. Further, the “temperature reached in solution” value in series [1] is “around 80 °C”. Moreover, the “maximum temperature of solution” value in series [1] (0.025 mg/ml in solution) amounted to 50±0.2 °C; in series [1] (0.05 mg/ml in solution), 68.8±0.7 °C; in series [1] (0.1 mg/ml in solution), 71.4±1.1 °C. The molecule further gave a median survival in series [2] (setting [4]) of 10 days. Besides, the “highest temperature reached on tumor surface during PTT” value in series [2] was “around 45 °C”.

As to `CC(C)C[C@H](NC(=O)[C@H](Cc1ccc(O)cc1)NC(=O)C(CCCNC(=N)N)NC(=O)C(CO)NC(=O)C(Cc1ccccc1)NC(=O)[C@H](CC1CCCCC1)NC(=O)C(CC(=O)O)NC(=O)C(CCC(=O)O)NC(=O)C(CCC(=O)O)NC(=O)CCCCCN1\C(=C/C=C/C=C/C=C/C2=[N+](CCCCS(=O)(=O)[O-])c3ccc4ccccc4c3C2(C)C)C(C)(C)c2c1ccc1ccccc21)C(=O)N[C@@H](Cc1c[nH]c2ccccc12)C(=O)N[C@@H](CO)C(=O)O` (stereo partly drawn) [ICG-Glu-Glu-AE105], the “temperature reached in solution” value in series [1] was “around 80 °C”. In addition, the “maximum temperature of solution” value came to 40.7±0.4 °C in series [1] (0.025 mg/ml in solution), 51.4±0.9 °C in series [1] (0.05 mg/ml in solution), 62.7±1.6 °C in series [1] (0.1 mg/ml in solution) and 70.8±3 °C in series [1] (0.5 mg/ml in solution). The median survival in series [2] (setting [4]) is on record as 13.5 days; in series [2] (sham group: injected, no laser treatment), 8 days. Moreover, the “tumor growth after PTT” value in series [2] (46 nmol four hours before PTT, caliper measurement, compared to all the other groups) was “delay in tumor growth”. Further, the “highest temperature reached on tumor surface during PTT” value in series [2] is “around 52 °C”. For the same molecule, the “complete tumor disappearance after PTT” value in series [2] (n=6, followed until 60 days after PTT) was “one mouse even experienced complete tumor disappearance”. Also, in series [2] (ratio FLUX (day X/day -1), versus all the other groups), the “bioluminescence signal after PTT” value is listed as “reduced signal”. Further, the “H&E staining of tumor tissue” value in series [3] was “high degree of cell death; also recorded: tissue disruption and hemorrhage”. Besides, the “uPAR signal in tumor tissue (immunological staining)” value in series [3] is “decrease in uPAR signal”.
